Data taken from ChEMBL document CHEMBL1143091, “Synthesis and SAR studies of biaryloxy-substituted triazoles as antifungal agents” (2008).
In brackets after ≈: the same amount, converted by molar mass.

Assays:
Cryptococcus neoformans = test: Antimicrobial activity against Cryptococcus neoformans ATCC 32609; type: functional
Candida tropicalis = test: Antimicrobial activity against Candida tropicalis isolates; type: functional
Fonsecaea compacta = test: Antimicrobial activity against Fonsecaea compacta isolates; type: functional
Candida parapsilosis = test: Antimicrobial activity against Candida parapsilosis isolates; details: Lodderomyces parapsilosis
Candida albicans = test: Antimicrobial activity against Candida albicans ATCC 76615; type: functional
Aspergillus fumigatus = test: Antimicrobial activity against Aspergillus fumigatus isolates; type: functional
Nannizzia gypsea = test: Antimicrobial activity against Microsporum gypseum isolates; type: functional
Trichophyton rubrum = test: Antimicrobial activity against Trichophyton rubrum isolates; type: functional

Compound | MIC (Cryptococcus neoformans) [µg/mL] | MIC (Candida tropicalis) [µg/mL] | MIC (Fonsecaea compacta) [µg/mL] | MIC (Candida parapsilosis) [µg/mL] | MIC (Candida albicans) [µg/mL] | MIC (Aspergillus fumigatus) [µg/mL] | MIC (Nannizzia gypsea) [µg/mL] | MIC (Trichophyton rubrum) [µg/mL]
Cc1cccc(C(=O)Nc2ccc(-c3ccc(OCC(O)(Cn4cncn4)c4ccc(F)cc4F)cc3)cn2)c1 (centres undefined) | 0.25 (≈ 0.462 µM) | 0.25 (≈ 0.462 µM) | 1 (≈ 1.85 µM) | 0.25 (≈ 0.462 µM) | 0.25 (≈ 0.462 µM) | 64 (≈ 118 µM) | 1 (≈ 1.85 µM) | 1 (≈ 1.85 µM)
O=C(Nc1ccc(-c2ccc(OCC(O)(Cn3cncn3)c3ccc(F)cc3F)cc2)cn1)c1ccc(CN2CCCCC2)cc1 (centres undefined) | 1 (≈ 1.6 µM) | 0.0625 (≈ 0.1 µM) | 1 (≈ 1.6 µM) | 0.0625 (≈ 0.1 µM) | 0.0625 (≈ 0.1 µM) | 4 (≈ 6.4 µM) | 1 (≈ 1.6 µM) | 0.25 (≈ 0.4 µM)
CCC(C)n1ncn(-c2ccc(N3CCN(c4ccc(OC[C@H]5CO[C@](Cn6cncn6)(c6ccc(Cl)cc6Cl)O5)cc4)CC3)cc2)c1=O (some centres undefined) [ITRACONAZOLE] | 1 (≈ 1.42 µM) | 0.25 (≈ 0.354 µM) | 0.0625 (≈ 0.0886 µM) | 0.0312 (≈ 0.0442 µM) | 0.5 (≈ 0.709 µM) | 1 (≈ 1.42 µM) | 0.0625 (≈ 0.0886 µM) | 0.0156 (≈ 0.0221 µM)
Oc1ccc(CNc2ccc(-c3ccc(OCC(O)(Cn4cncn4)c4ccc(F)cc4F)cc3)cn2)cc1 (centres undefined) | > 64 | 0.0156 (≈ 0.0295 µM) | 1 (≈ 1.89 µM) | 0.0625 (≈ 0.118 µM) | 0.0625 (≈ 0.118 µM) | > 64 | 4 (≈ 7.55 µM) | > 64
C[C@@H]1[C@H](O)[C@@H](C)/C=C/C=C/C=C/C=C/C=C/C=C/C=C/[C@H](O[C@@H]2O[C@H](C)[C@@H](O)[C@H](N)[C@@H]2O)C[C@@H]2O[C@](O)(C[C@@H](O)C[C@@H](O)[C@H](O)CC[C@@H](O)C[C@@H](O)CC(=O)O[C@H]1C)C[C@H](O)[C@H]2C(=O)O [AMPHOTERICIN B] | 1 (≈ 1.08 µM) | 4 (≈ 4.33 µM) | 16 (≈ 17.3 µM) | 1 (≈ 1.08 µM) | 0.25 (≈ 0.271 µM) | 16 (≈ 17.3 µM) | 1 (≈ 1.08 µM) | 16 (≈ 17.3 µM)
O=C(CN1CCNCC1)Nc1ccc(-c2ccc(OCC(O)(Cn3cncn3)c3ccc(F)cc3F)cc2)cn1 (centres undefined) | 64 (≈ 116 µM) | 1 (≈ 1.82 µM) | 1 (≈ 1.82 µM) | 4 (≈ 7.28 µM) | 16 (≈ 29.1 µM) | > 64 | 1 (≈ 1.82 µM) | 1 (≈ 1.82 µM)
OC(Cn1cncn1)(Cn1cncn1)c1ccc(F)cc1F [FLUCONAZOLE] | 0.25 (≈ 0.816 µM) | 1 (≈ 3.27 µM) | 16 (≈ 52.2 µM) | 4 (≈ 13.1 µM) | 16 (≈ 52.2 µM) | > 64 | 1 (≈ 3.27 µM) | 1 (≈ 3.27 µM)
OC(COc1ccc(-c2ccc(NCc3cccc(Cl)c3)nc2)cc1)(Cn1cncn1)c1ccc(F)cc1F (centres undefined) | 4 (≈ 7.3 µM) | 0.25 (≈ 0.456 µM) | 4 (≈ 7.3 µM) | 0.25 (≈ 0.456 µM) | 4 (≈ 7.3 µM) | > 64 | 1 (≈ 1.82 µM) | 4 (≈ 7.3 µM)
COc1ccc(C(=O)Nc2ccc(-c3ccc(OCC(O)(Cn4cncn4)c4ccc(F)cc4F)cc3)cn2)cc1 (centres undefined) | 1 (≈ 1.79 µM) | 0.25 (≈ 0.448 µM) | 0.25 (≈ 0.448 µM) | 0.25 (≈ 0.448 µM) | 0.0625 (≈ 0.112 µM) | 64 (≈ 115 µM) | 1 (≈ 1.79 µM) | 0.25 (≈ 0.448 µM)
CCNc1ccc(-c2ccc(OCC(O)(Cn3cncn3)c3ccc(F)cc3F)cc2)cn1 (centres undefined) | 16 (≈ 35.4 µM) | 0.0625 (≈ 0.138 µM) | 1 (≈ 2.21 µM) | 0.0625 (≈ 0.138 µM) | 0.0625 (≈ 0.138 µM) | > 64 | > 64 | > 64
Oc1ccccc1CNc1ccc(-c2ccc(OCC(O)(Cn3cncn3)c3ccc(F)cc3F)cc2)cn1 (centres undefined) | > 64 | 0.0625 (≈ 0.118 µM) | 0.25 (≈ 0.472 µM) | 0.0625 (≈ 0.118 µM) | 0.0625 (≈ 0.118 µM) | 64 (≈ 121 µM) | 0.0625 (≈ 0.118 µM) | 0.0625 (≈ 0.118 µM)
CNCC(=O)Nc1ccc(-c2ccc(OCC(O)(Cn3cncn3)c3ccc(F)cc3F)cc2)cn1 (centres undefined) | 16 (≈ 32.4 µM) | 0.25 (≈ 0.506 µM) | 1 (≈ 2.02 µM) | 0.25 (≈ 0.506 µM) | 0.0625 (≈ 0.126 µM) | 4 (≈ 8.09 µM) | 1 (≈ 2.02 µM) | 1 (≈ 2.02 µM)
O=C(CCl)Nc1ccc(-c2ccc(OCC(O)(Cn3cncn3)c3ccc(F)cc3F)cc2)cn1 (centres undefined) | 1 (≈ 2 µM) | 0.25 (≈ 0.5 µM) | 1 (≈ 2 µM) | 0.25 (≈ 0.5 µM) | 0.25 (≈ 0.5 µM) | > 64 | 1 (≈ 2 µM) | 0.25 (≈ 0.5 µM)
